Data published in PubChem BioAssay AID1963874 (Molecular Pharmacology Branch, DTP, NCI, 2024).
pIC50: −log10 of the molar value.

Test system: 253994-281-T-J1-PDC KRAS-mutant spheroids with HUVEC/MSC, viability
Experiment: Anticancer human tumor 253994-281-T-J1-PDC patient-derived colorectal carcinoma cell line growth inhibition [KRAS2]
Conditions: for pIC50: curve of first compound; for viability, T/C: stronger effect = lower value
Method in brief: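 Combination screen of spheroid viability in tumor-cell co-cultures with endothelial (HUVEC) and mesenchymal stem cell stroma. Each agent was tested in half-log dilutions, topping at clinical Cmax or at 10 microM without a known Cmax.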

[1] = second compound 0.1 µM, first compound 0.01 µM
[2] = second compound 0.1 µM, first compound 0.0316 µM
[3] = second compound 0.1 µM, first compound 0.1 µM
[4] = second compound 0.1 µM, first compound 0.316 µM
[5] = second compound 0.1 µM, first compound 1 µM
[6] = second compound 0.1 µM, first compound 3.16 µM
[7] = second compound 0.316 µM, first compound 0.01 µM
[8] = second compound 0.316 µM, first compound 0.0316 µM
[9] = second compound 0.316 µM, first compound 0.1 µM
[10] = second compound 0.316 µM, first compound 0.316 µM
[11] = second compound 0.316 µM, first compound 1 µM
[12] = second compound 0.316 µM, first compound 3.16 µM
[13] = second compound 1 µM, first compound 0.01 µM
[14] = second compound 1 µM, first compound 0.0316 µM
[15] = second compound 1 µM, first compound 0.1 µM
[16] = second compound 1 µM, first compound 0.316 µM
[17] = second compound 1 µM, first compound 1 µM
[18] = second compound 1 µM, first compound 3.16 µM
[19] = second compound 3.16 µM, first compound 0.01 µM
[20] = second compound 3.16 µM, first compound 0.0316 µM
[21] = second compound 3.16 µM, first compound 0.1 µM
[22] = second compound 3.16 µM, first compound 0.316 µM
[23] = second compound 3.16 µM, first compound 1 µM
[24] = second compound 3.16 µM, first compound 3.16 µM
[25] = second compound 10 µM, first compound 0.01 µM
[26] = second compound 10 µM, first compound 0.0316 µM
[27] = second compound 10 µM, first compound 0.1 µM
[28] = second compound 10 µM, first compound 0.316 µM
[29] = second compound 10 µM, first compound 1 µM
[30] = second compound 10 µM, first compound 3.16 µM
[31] = second compound 0.1 µM, first compound 10 µM
[32] = second compound 0.316 µM, first compound 10 µM
[33] = second compound 1 µM, first compound 10 µM
[34] = second compound 3.16 µM, first compound 10 µM
[35] = second compound 10 µM, first compound 10 µM
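Also: spheroids exposed to agents for seven days before readout.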
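For viability, T/C in this document: percent of DMSO vehicle control viability.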

SMILES	pIC50 (second compound 0.1 µM)	pIC50 (second compound 0.316 µM)	pIC50 (second compound 1 µM)	pIC50 (second compound 3.16 µM)	pIC50 (second compound 10 µM)	viability, T/C [2] [%]	viability, T/C [3] [%]	viability, T/C [4] [%]	viability, T/C [5] [%]	viability, T/C [6] [%]	viability, T/C [8] [%]	viability, T/C [9] [%]	viability, T/C [10] [%]	viability, T/C [11] [%]	viability, T/C [12] [%]	viability, T/C [14] [%]	viability, T/C [15] [%]	viability, T/C [16] [%]	viability, T/C [17] [%]	viability, T/C [18] [%]	further results
CC1COCCN1c1cc(-c2ccnn2C)c2ccnc(-c3ccn[nH]3)c2n1 (stereo not given) + CC1OCC2(CCN(c3cnc(Sc4ccnc(N)c4Cl)c(N)n3)CC2)C1N	6.55	6.85	6.94	7.30	> 8.00	81.8	62.9	44	47	53.1	83	55.4	33.3	36.4	43.6	70.4	52.8	30.9	27.6	38	viability, T/C [1]: 87%; viability, T/C [7]: 87.5%; viability, T/C [13]: 75.2%; viability, T/C [19]: 59.5%; viability, T/C [20]: 58.9%; viability, T/C [21]: 35.8%; viability, T/C [22]: 24.1%; viability, T/C [23]: 24.3%; viability, T/C [24]: 28.2%; viability, T/C [25]: 43%; viability, T/C [26]: 53.4%; viability, T/C [27]: 25.1%; viability, T/C [28]: 16.7%; viability, T/C [29]: 18.9%; viability, T/C [30]: 23.6%
COc1cc(Nc2ncc3c(n2)-c2ccc(Cl)cc2C(c2c(F)cccc2OC)=NC3)ccc1C(=O)O + CNCc1ccccc1-c1csc(C(C)Nc2nc(C)nc3cc(OC)c(OC)cc23)c1	7.40	> 7.50	> 7.50	> 7.50	> 7.50	54.1	28.8	25.6	31.4	30.5	49.7	31.7	28.5	30.3	39.5	39.1	25.6	25.1	30	26.2	viability, T/C [31]: 45%; viability, T/C [32]: 33.5%; viability, T/C [33]: 30.9%; viability, T/C [20]: 9.35%; viability, T/C [21]: 1.45%; viability, T/C [22]: 1.32%; viability, T/C [23]: 0.29%; viability, T/C [24]: 4.67%; viability, T/C [34]: 15.5%; viability, T/C [26]: 0.14%; viability, T/C [27]: 0.15%; viability, T/C [28]: 0.15%; viability, T/C [29]: 0.14%; viability, T/C [30]: 0.15%; viability, T/C [35]: 0.18%
CC1OCC2(CCN(c3cnc(Sc4ccnc(N)c4Cl)c(N)n3)CC2)C1N (stereo not given) + CNCc1ccccc1-c1csc(C(C)Nc2nc(C)nc3cc(OC)c(OC)cc23)c1	< 5.00	< 5.00	5.34	> 7.50	> 7.50	93	96.7	93.3	87.9	79.1	94.7	83.9	85.6	82.5	68.1	90.3	95.2	78.7	64.8	60.9	viability, T/C [31]: 51.8%; viability, T/C [32]: 51.8%; viability, T/C [33]: 36.5%; viability, T/C [20]: 43.8%; viability, T/C [21]: 28%; viability, T/C [22]: 31.1%; viability, T/C [23]: 31.2%; viability, T/C [24]: 24.8%; viability, T/C [34]: 0.81%; viability, T/C [26]: 0.21%; viability, T/C [27]: 0.25%; viability, T/C [28]: 0.22%; viability, T/C [29]: 0.19%; viability, T/C [30]: 0.23%; viability, T/C [35]: 0.21%
CC1COCCN1c1cc(-c2ccnn2C)c2ccnc(-c3ccn[nH]3)c2n1 (stereo not given) + CNCc1ccccc1-c1csc(C(C)Nc2nc(C)nc3cc(OC)c(OC)cc23)c1	< 5.50	< 5.50	6.53	> 8.00	> 8.00	106	76.1	50.7	60.2	52.4	91.5	73.5	46.5	55.9	57.1	85.5	67.5	47	54.8	42.1	viability, T/C [1]: 85.8%; viability, T/C [7]: 108%; viability, T/C [13]: 89.5%; viability, T/C [19]: 42.9%; viability, T/C [20]: 42%; viability, T/C [21]: 27.3%; viability, T/C [22]: 17.9%; viability, T/C [23]: 24%; viability, T/C [24]: 14.9%; viability, T/C [25]: 0.59%; viability, T/C [26]: 0.21%; viability, T/C [27]: 0.17%; viability, T/C [28]: 0.19%; viability, T/C [29]: 0.16%; viability, T/C [30]: 0.23%
CC1(C)CCC(CN2CCN(c3ccc(C(=O)NS(=O)(=O)c4ccc(NCC5CCOCC5)c([N+](=O)[O-])c4)c(Oc4cnc5[nH]ccc5c4)c3)CC2)=C(c2ccc(Cl)cc2)C1 + CNCc1ccccc1-c1csc(C(C)Nc2nc(C)nc3cc(OC)c(OC)cc23)c1	< 5.00	5.19	5.34	> 7.50	> 7.50	99.5	105	101	99.5	82.6	86	94.3	86.2	80.9	81.4	82.7	83.7	84.2	78.1	64.6	viability, T/C [31]: 69.9%; viability, T/C [32]: 30.8%; viability, T/C [33]: 19.4%; viability, T/C [20]: 33.9%; viability, T/C [21]: 29.8%; viability, T/C [22]: 38.1%; viability, T/C [23]: 32.9%; viability, T/C [24]: 13.1%; viability, T/C [34]: 6.34%; viability, T/C [26]: 0.15%; viability, T/C [27]: 0.15%; viability, T/C [28]: 0.13%; viability, T/C [29]: 0.11%; viability, T/C [30]: 0.11%; viability, T/C [35]: 0.17%
CCNC(=O)CC1N=C(c2ccc(Cl)cc2)c2cc(OC)ccc2-n2c(C)nnc21 (stereo not given) + CNCc1ccccc1-c1csc(C(C)Nc2nc(C)nc3cc(OC)c(OC)cc23)c1	< 5.00	< 5.00	< 5.00	7.19	> 7.50	106	103	86.8	85.8	91.7	110	100	101	90	87.3	87.3	106	103	88.4	79	viability, T/C [31]: 88.9%; viability, T/C [32]: 78.1%; viability, T/C [33]: 64.3%; viability, T/C [20]: 48.9%; viability, T/C [21]: 53.7%; viability, T/C [22]: 42.8%; viability, T/C [23]: 38.2%; viability, T/C [24]: 34.8%; viability, T/C [34]: 27.7%; viability, T/C [26]: 0.26%; viability, T/C [27]: 0.24%; viability, T/C [28]: 0.23%; viability, T/C [29]: 0.18%; viability, T/C [30]: 0.18%; viability, T/C [35]: 0.29%
